Test results: patent US6211154A, “Ketoheterocyclic inhibitors of factor Xa” (COR Therapeutics, Inc., priority 1995, dated 2001)

Assay: Coagulation parameters (aPTT, PT) in blood samples of the rabbit venous thrombosis model
Assay type: in vivo
Conditions: steady state, mean±SD
Source text: All measurements are an average of all samples after steady state administration of vehicle or (D)--Arg--G|y--Arg--thiazole. Values are expressed as mean±SD.

NC(N)=NCCCC(N)C(=O)NCC(=O)NC(CCCN=C(N)N)C(=O)c1nccs1 [H-D-Arg-Gly-Arg-thiazole, H--(D)--Arg--Gly--Arg--Thiazole]
PT fold increase over baseline (50 μg/kg + 1.28 μg/kg/min): 1.00 ± 0.00 fold
PT fold increase over baseline (75 μg/kg + 1.93 μg/kg/min): 1.00 ± 0.00 fold
PT fold increase over baseline (100 μg/kg + 2.57 μg/kg/min): 0.83 ± 0.00 fold
